The values below come from patent US20130109682A1, “CYCLIC ETHER COMPOUNDS USEFUL AS KINASE INHIBITORS” (NOVARTIS AG, priority 2010, published 2013).

For experiment [1], the target named is GSK3β (Homo sapiens, UniProt P49841). Briefly: GSK3β ATP depletion assay. In kind it is biochemical. The settings on record: read-out: GSK3b IC50. The method in brief: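 Kinase activity is read as ATP consumption: luciferase luminescence reports the ATP remaining once roughly half of the 2 μM ATP is used. Reaction mix: 5 nM GSK3β, 10 μM b-CREB peptide, 50 mM Tris pH 7.5, 15 mM MgCl2, 1 mM DTT, 0.1% BSA, 2.5% DMSO. Enzyme and peptide are preincubated 15 min before ATP is added.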
Sequence of GSK3β (P49841 whole entry, species assumed): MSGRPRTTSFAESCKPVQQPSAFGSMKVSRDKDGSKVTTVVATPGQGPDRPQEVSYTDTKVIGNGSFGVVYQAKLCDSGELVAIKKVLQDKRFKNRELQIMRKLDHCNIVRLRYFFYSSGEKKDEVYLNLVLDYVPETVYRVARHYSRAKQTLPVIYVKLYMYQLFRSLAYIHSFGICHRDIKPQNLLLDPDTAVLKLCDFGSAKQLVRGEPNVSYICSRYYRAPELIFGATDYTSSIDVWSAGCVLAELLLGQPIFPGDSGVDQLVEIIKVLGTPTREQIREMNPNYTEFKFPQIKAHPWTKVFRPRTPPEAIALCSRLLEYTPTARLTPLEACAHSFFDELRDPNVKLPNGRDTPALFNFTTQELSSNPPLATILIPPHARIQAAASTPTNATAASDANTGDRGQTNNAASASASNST

In experiment [2] the target is PIM2 (Homo sapiens, UniProt Q9P1W9). Nature of the experiment: KinaseGlo Pim2 ATP depletion assay. In kind it is biochemical. The method in brief:
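Compound sat 15 min with enzyme and BAD peptide before ATP was added; final levels 5 nM PIM2, 10 μM peptide, 4 μM ATP, 2.5% DMSO, pH 7.5 HEPES buffer with MgCl2, DTT, BSA. Stopped near 50% ATP consumption; remaining ATP measured by luciferase luminescence.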

For experiment [3], the system named is KMS11 (human myeloma cell line). Nature of the experiment: Cell proliferation assay (CellTiter-Glo), KMS11. In kind it is cell-based. The following applies: Homo sapiens, KMS-11; KMS11-Luc cells. The method, then: KMS11 (human myeloma cell line), were cultured in IMDM supplemented with 10% FBS, sodium pyruvate and antibiotics. Cells were plated in the same medium at a density of 2000 cells per well into 96 well tissue culture plates, with outside wells vacant, on the day of assay. MMl.s (human myeloma cell line), were cultured in RPMI1640 supplemented with 10% FBS, sodium pyruvate and antibiotics. Cells were plated in the same medium at a density of 5000 cells per well into 96 well tissue culture plates, with outside wells vacant, on the day of assay.
Test compounds supplied in DMSO were diluted into DMSO at 500 times the desired final concentrations before dilution into culture media to 2 times final concentrations. Equal volumes of 2× compounds were added to the cells in 96 well plates and incubated at 37° C. for 3 days.
After 3 days plates were equilibrated to room temperature and equal volume of CellTiter-Glow Reagent (Promega) was added to the culture wells. The plates were agitated briefly and luminescent signal was measured with luminometer.
Using the procedures of Cell Proliferation Assay, the EC50 concentration of indicated compounds of the examples in were determined in KMS11 cells as shown in Table 4.
(In general: Cellular ATP, detected with luciferase, serves as a proxy for viable cell number.)

Experiment [4] deals with PIM3 (Homo sapiens, UniProt Q86V86). Nature of the experiment: KinaseGlo Pim3 ATP depletion assay. In kind it is biochemical. The method in brief: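 Residual ATP was detected by luciferase luminescence once about half had been consumed. The reaction contained 5 nM enzyme, 100 μM BAD peptide (RSRHSSYPAGT) and 40 μM ATP in 50 mM HEPES pH 7.5, 5 mM MgCl2, 1 mM DTT and 0.05% BSA with 2.5% DMSO. Compound and enzyme/peptide were premixed 15 min before ATP.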

Experiment [5] has as its target PIM1 (Homo sapiens, UniProt P11309). Briefly: KinaseGlo Pim1 ATP depletion assay. In kind it is biochemical. The method in brief: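 IC50 is derived from residual ATP measured by KinaseGlo Plus luminescence once about half the ATP was consumed. Final conditions were 20 μM ATP, 40 μM BAD peptide and 2.5 nM kinase in HEPES pH 7.5 buffer with MgCl2, DTT and BSA, plus 2.5% DMSO. Compound and enzyme were premixed 15 min before ATP addition.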
(In general: In Kinase-Glo more light means more ATP remaining.)

Sequence of PIM1 (P11309 whole entry): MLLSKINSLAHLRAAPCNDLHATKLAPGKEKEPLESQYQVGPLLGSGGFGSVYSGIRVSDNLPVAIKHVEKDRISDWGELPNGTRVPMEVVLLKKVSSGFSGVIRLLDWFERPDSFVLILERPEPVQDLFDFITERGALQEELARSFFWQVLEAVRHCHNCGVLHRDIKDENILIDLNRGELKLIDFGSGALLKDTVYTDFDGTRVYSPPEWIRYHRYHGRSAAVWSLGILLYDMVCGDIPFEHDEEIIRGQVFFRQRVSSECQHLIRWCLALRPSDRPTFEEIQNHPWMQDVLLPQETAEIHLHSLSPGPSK
Sequence of PIM2 (Q9P1W9 whole entry): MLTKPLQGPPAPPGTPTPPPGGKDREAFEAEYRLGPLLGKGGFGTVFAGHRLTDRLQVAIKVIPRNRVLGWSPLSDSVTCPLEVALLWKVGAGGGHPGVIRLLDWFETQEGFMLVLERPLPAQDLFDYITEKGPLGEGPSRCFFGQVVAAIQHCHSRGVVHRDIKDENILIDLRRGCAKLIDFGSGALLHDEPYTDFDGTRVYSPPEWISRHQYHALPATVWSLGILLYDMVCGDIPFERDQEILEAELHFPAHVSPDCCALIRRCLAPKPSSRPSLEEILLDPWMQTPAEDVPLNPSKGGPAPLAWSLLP

As for `CC[C@]1(O)[C@H](O)C[C@H](c2ccncc2NC(=O)c2nc(-c3nccs3)ccc2N)O[C@@H]1C` [Example 3, 3-amino-N-(4-((2R,4R,5S,6R)-5-ethyl-4,5-dihydroxy-6-methyltetrahydro-2H-pyran-2-yl)pyridin-3-yl)-6-(thiazol-2-yl)picolinamide], the IC50 (commonly the midpoint of a concentration-inhibition curve) in experiment [1] amounted to 1.17 µM; in experiment [2] it was 0.066 µM; in experiment [4], 0.012 µM; in experiment [5], 0.0087 µM. In addition, the EC50 (in general, the concentration needed to bring the measured effect to its halfway point) in experiment [3] is more than 10 µM.
As to `N#C[C@H]1OC(c2ccncc2NC(=O)c2nc(-c3c(F)cccc3F)c(F)cc2N)=C[C@@H](O)[C@@H]1O` [Example 4, 3-amino-N-(4-((2R,3S,4R)-2-cyano-3,4-dihydroxy-3,4-dihydro-2H-pyran-6-yl)pyridin-3-yl)-6-(2,6-difluorophenyl)-5-fluoropicolinamide], the IC50 in experiment [1] came to 0.268 µM; in experiment [2], 0.004 µM; in experiment [4] it was 0.0031 µM; in experiment [5], 0.0011 µM. In addition, the EC50 in experiment [3] was 7.24 µM.
For `C=C1[C@@H](O)C[C@@H](c2ccncc2NC(=O)c2nc(-c3c(F)cccc3F)ncc2N)OC12CC2` [Example 6, 5-amino-2-(2,6-difluorophenyl)-N-(4-((5S,7S)-7-hydroxy-8-methylene-4-oxaspiro[2.5]octan-5-yl)pyridin-3-yl)pyrimidine-4-carboxamide] the same measures were 0.72 µM, 0.28 µM, 0.0536 µM, 0.07 µM and more than 10 µM.
For `C=C1[C@@H](O)C[C@@H](c2ccncc2NC(=O)c2ccc(F)c(-c3c(F)cccc3F)n2)OC12CC2` [Example 7, 6-(2,6-difluorophenyl)-5-fluoro-N-(4-((5S,7S)-7-hydroxy-8-methylene-4-oxaspiro[2.5]octan-5-yl)pyridin-3-yl)picolinamide], the concentration for half-maximal inhibition (IC50) worked out at 0.879 µM in experiment [1], 0.151 µM in experiment [2], 0.017 µM in experiment [4] and 0.008 µM in experiment [5]. The same molecule displayed a 50% effective concentration (EC50) in experiment [3] of more than 10 µM.
The matching figures for `C=C1[C@H](O)C[C@H](c2ccncc2NC(=O)c2nc(-c3c(F)cccc3F)ncc2N)OC12CC2` [Example 8, 5-amino-2-(2,6-difluorophenyl)-N-(4-((5R,7R)-7-hydroxy-8-methylene-4-oxaspiro[2.5]octan-5-yl)pyridin-3-yl)pyrimidine-4-carboxamide]: 1.33 µM, 0.323 µM, 0.149 µM, 0.051 µM and more than 10 µM.
For `C=C1[C@H](O)C[C@H](c2ccncc2NC(=O)c2ccc(F)c(-c3c(F)cccc3F)n2)OC12CC2` [Example 9, 6-(2,6-difluorophenyl)-5-fluoro-N-(4-((5R,7R)-7-hydroxy-8-methylene-4-oxaspiro[2.5]octan-5-yl)pyridin-3-yl)picolinamide] the same measures were 0.453 µM, 0.154 µM, 0.025 µM, 0.0049 µM and more than 10 µM.
For `C[C@@H]1OC(c2ccncc2NC(=O)c2nc(-c3c(F)cccc3F)ncc2N)=C[C@H](O)[C@@]1(C)O` [Example 10, 5-amino-2-(2,6-difluorophenyl)-N-(4-((2S,3R,4S)-3,4-dihydroxy-2,3-dimethyl-3,4-dihydro-2H-pyran-6-yl)pyridin-3-yl)pyrimidine-4-carboxamide] the same measures were 1.47 µM, 0.04 µM, 0.0206 µM, 0.0186 µM and 8.63 µM.
`C[C@H]1OC(c2ccncc2NC(=O)c2nc(-c3c(F)cccc3F)ncc2N)=C[C@@H](O)[C@]1(C)O` [Example 11, 5-amino-2-(2,6-difluorophenyl)-N-(4-((2R,3S,4R)-3,4-dihydroxy-2,3-dimethyl-3,4-dihydro-2H-pyran-6-yl)pyridin-3-yl)pyrimidine-4-carboxamide]: the IC50 in experiment [1] came out at 0.718 µM; in experiment [2], 0.0014 µM; in experiment [4] it was 0.0018 µM; in experiment [5], 0.0007 µM. In experiment [3], this molecule returned a concentration giving a half-maximal response (EC50) of 0.718 µM.
Consider `N#C[C@H]1O[C@@H](c2ccncc2NC(=O)c2nc(-c3c(F)cccc3F)c(F)cc2N)C[C@@H](O)[C@@H]1O` [Example 12, 3-amino-N-(4-((2R,4R,5S,6R)-6-cyano-4,5-dihydroxytetrahydro-2H-pyran-2-yl)pyridin-3-yl)-6-(2,6-difluorophenyl)-5-fluoropicolinamide], for which the 50% inhibitory concentration (IC50) was 0.22 µM in experiment [1], 0.005 µM in experiment [2], 0.003 µM in experiment [4] and 0.001 µM in experiment [5]. The molecule further registered an EC50 in experiment [3] of 7.65 µM.
As for `N#C[C@H]1O[C@@H](c2ccncc2NC(=O)c2ccc(F)c(-c3c(F)cccc3F)n2)C[C@@H](O)[C@@H]1O` [Example 13, N-(4-((2R,4R,5S,6R)-6-cyano-4,5-dihydroxytetrahydro-2H-pyran-2-yl)pyridin-3-yl)-6-(2,6-difluorophenyl)-5-fluoropicolinamide], the IC50 came to 0.583 µM in experiment [1], 0.012 µM in experiment [2], 0.005 µM in experiment [4] and 0.001 µM in experiment [5]. Also, the EC50 in experiment [3] came out at 8.11 µM.
The matching figures for `Nc1cnc(-c2c(F)cccc2F)nc1C(=O)Nc1cnccc1C1=C[C@@H](O)[C@H](O)[C@@H](CCl)O1` [Example 14, 5-amino-N-(4-((2S,3S,4R)-2-(chloromethyl)-3,4-dihydroxy-3,4-dihydro-2H-pyran-6-yl)pyridin-3-yl)-2-(2,6-difluorophenyl)pyrimidine-4-carboxamide]: 0.07 µM, 0.002 µM, 0.003 µM, 0.001 µM and 2.63 µM.
In the case of `CC[C@]1(O)[C@H](O)C[C@H](c2ccncc2NC(=O)c2nc(-c3ccccc3)cnc2N)O[C@@H]1C` [Example 15, 3-amino-N-(4-((2R,4R,5S,6R)-5-ethyl-4,5-dihydroxy-6-methyltetrahydro-2H-pyran-2-yl)pyridin-3-yl)-6-phenylpyrazine-2-carboxamide], the 50% inhibitory concentration (IC50) worked out at 0.001 µM in experiment [1], 0.008 µM in experiment [2], 0.002 µM in experiment [4] and 0.001 µM in experiment [5]. The same molecule registered a half-maximal effective concentration (EC50) in experiment [3] of 0.184 µM.
For `Nc1cnc(-c2c(F)cccc2F)nc1C(=O)Nc1cnccc1[C@H]1C[C@@H](O)[C@H](O)[C@@H](CCl)O1` [Example 17, 5-amino-N-(4-((2R,4R,5S,6S)-6-(chloromethyl)-4,5-dihydroxytetrahydro-2H-pyran-2-yl)pyridin-3-yl)-2-(2,6-difluorophenyl)pyrimidine-4-carboxamide], the IC50 came out at 0.066 µM in experiment [1], 0.003 µM in experiment [2], 0.004 µM in experiment [4] and 0.002 µM in experiment [5]. In experiment [3], this molecule yielded a concentration giving a half-maximal response (EC50) of 4.16 µM.
The matching figures for `CC[C@H]1O[C@@H](c2ccncc2NC(=O)c2nc(-c3c(F)cccc3F)ncc2N)C[C@@H](O)[C@@H]1O` [Example 18, 5-amino-2-(2,6-difluorophenyl)-N-(4-((2R,4R,5S,6R)-6-ethyl-4,5-dihydroxytetrahydro-2H-pyran-2-yl)pyridin-3-yl)pyrimidine-4-carboxamide]: 0.191 µM, 0.005 µM, 0.005 µM, 0.003 µM and 5.71 µM.
For `C=C[C@H]1OC(c2ccncc2NC(=O)c2nc(-c3ccccc3)ncc2N)=C[C@@H](O)[C@@H]1O` [Example 22, 5-amino-N-(4-((2R,3S,4R)-3,4-dihydroxy-2-vinyl-3,4-dihydro-2H-pyran-6-yl)pyridin-3-yl)-2-phenylpyrimidine-4-carboxamide] the same measures were 0.87 µM, 0.16 µM, 0.009 µM, 0.02 µM and more than 10 µM.
